Patent publication US9464064B2, “HCV helicase inhibitors and methods of use thereof” (University of Kansas, priority 2011, dated 2016)

Experiments:
[1] = tested on: HCV replication complexes in Huh-7.5/HCV Con1sg Rluc cells; assay: Indirect immunofluorescence staining of NS5A (replication complexes); format: cell-based, hepatitis C virus; settings: 10 μM, 72 hours
Description: For indirect immunofluorescence staining, Huh-7.5/HCV Con1sg Rluc cells were plated on cover slips in a 24-well plate. The next day, compounds were added at a 10 μM concentration and after 48 hours from the first addition, the medium was supplemented with 10 μM compound. Interferon alpha-2b was used as positive control at 100 U/well and added at the same time points as compounds. After 72 hours, indirect immunofluorescence staining was performed according to standard methods. Cells were fixed in 1% PFA for 40 minutes, washed thrice with 5 mL PBS, permeabilized with 0.05% saponin (Sigma) and blocked with 3% BSA in PBS for 1 hour at 37° C. Subsequently, cells were washed with 2 mL PBS three times and incubated with mouse monoclonal antibody 9E10 against NS5A diluted in blocking buffer for 1 hour at room temperature. Cells were washed three times with 2 ml PBS and once with 3% BSA. The cells were then incubated with ALEXA 546 conjugated-goat F(ab′)2 anti-mouse immunoglobulin G (IgG) (Invitrogen) for 1 hour at room temperature. Cells were washed twice with PBS and then mounted on glass slides using PROLONG Gold anti-fade reagent (Invitrogen). Appropriate controls were performed to rule out nonspecific binding of primary and secondary antibodies.
Microscopy was performed with a Nikon Ti-E inverted fluorescence microscope using a 20× and 40×/NA 1.4 objective. […]

[2] = Plasma protein binding (RED), mouse; format: in vitro ADME
Description: TEFLON Base Plate wells were rinsed with 20% ethanol for 10 minutes. Ethanol was then removed and wells were rinsed with ultrapure water and allowed to dry. RED (rapid equilibrium dialysis) inserts from Thermo Scientific (Pierce) were placed (open end up) into the wells of the base plate. All liquid was dispensed and transfer steps were performed with the FREEDOM EVO automated liquid handler (Tecan US). The sample chambers (red ring) contained 300 μl of a mixture of plasma and compound, and the buffer chambers received 500 μl of dialysis buffer (1×PBS, pH7.4). Duplicate inserts were made for each concentration tested. The base plate was covered with sealing tape and incubated at 37° C. on an orbital shaker at 350 rpm for 4 hours. After the incubation time, equal volumes from both chambers were removed and transferred to a 96 well plate containing either plasma or buffer. […] The amount of compound in the supernatant was determined by LC/MS/MS (Applied Biosystems, Sciex API4000 Q-Trap). The percent of free and bound compounds were calculated with the following formula: % of bound parent compound=[(amount of compound in donor-receiver/amount of compound in donor)×100]. Results reported are the mean of each reaction duplicate, normalized to the internal standard, and expressed as a percent compound bound after the incubation time. […]

[3] = Parallel Artificial Membrane Permeability Assay (PAMPA); format: in vitro ADME; settings: acceptor pH 7.4
Description: Permeability was assessed using the Parallel Artificial Membrane Permeability Assay (PAMPA) in a 96-well format. All liquid dispensed and transfer steps were performed with the FREEDOM EVO automated liquid handler (Tecan US). Measurements were performed in an aqueous buffer solution (PRISMA HT, pION Inc.) at pH 5.0, 6.2, and 7.4, in duplicate. A “sandwich” plate (pION Inc.) composed of a donor bottom plate and an acceptor filter plate was used. The donor wells contained the compounds in 180 μl system solution, and magnetic stir bars. The filter on the bottom of each acceptor well was coated with GIT-0 lipid (pION Inc.) and filled with 200 μl of Acceptor Sink Buffer, pH 7.4 (pION Inc.) containing a surfactant to mimic the function of serum proteins. The permeation time was 30 minutes and moderate stirring (equivalent to 40 μm Aqueous Boundary Layer thickness) was applied using the GUT-BOX (pION, Inc.). After the permeation time, the sandwich was disassembled and the amount of compound present in both the donor and acceptor wells was measured by UV absorbance (250-498 nm) using the Infinite M200 (Tecan US) and compared to spectra obtained from reference standards. Mass balance was used to determine the amount of material embedded in the membrane filter. The effective permeability, Pe, was calculated using the software PAMPA Evolution Plus, version 3.2 (pION Inc). Verapamil HCl (considered highly permeable), Metoprolol (considered moderately permeable), and Ranitidine (considered poorly permeable) were used as reference standards. Permeation time was 30 minutes. Final DMSO concentration was 0.5% and standards and test compounds were assayed at 100 μM.

Row | SMILES | number of HCV replication complexes (NS5A staining) [1] | fraction unbound at 4 h, 1 μM ([2]; pH 7.4, 1 μM, read-out: Plasma Protein Binding (% Bound) Mouse (converted)) | fraction unbound at 4 h, 10 μM ([2]; pH 7.4, 10 μM, read-out: Plasma Protein Binding (% Bound) Mouse) | Papp at 30 min, 100 μM ([3]; PAMPA, donor pH 6.2, read-out: PAMPA Pe) | PAMPA Pe ([3]; donor pH 5.0) | PAMPA Pe ([3]; donor pH 7.4)
1 | Cc1ccc2nc(-c3ccc4nc(-c5ccc(NC(=O)c6cc(C(F)(F)F)cc(C(F)(F)F)c6)cc5)sc4c3)sc2c1S(=O)(=O)O [Compound 24, 2′-(4-(3,5-bis(trifluoromethyl)benzamido)phenyl)-6-methyl-[2,6′-bibenzo[d]thiazole]-7-sulfonic acid] | lower number of replication complexes | – | – | – | – | –
2 | Cc1ccc2nc(-c3ccc4nc(-c5ccc(NC(=O)c6cccc(Cl)c6)cc5)sc4c3)sc2c1S(=O)(=O)O [Compound 17, 2′-(4-(3-chlorobenzamido)phenyl)-6-methyl-[2,6′-bibenzo[d]thiazole]-7-sulfonic acid] | – | 0.02 | 0.01 | 0.22 ×10⁻⁶ cm/s | 0 (5.0) ×10^−6 cm/s | 0 (7.4) ×10^−6 cm/s
